Measurements from ChEMBL document CHEMBL3813639, “The Halicylindramides, Farnesoid X Receptor Antagonizing Depsipeptides from a Petrosia sp. Marine Sponge Collected in Korea” (J Nat Prod, 2016).
Active and inactive are the calls of the source. The calls are words filed in the database; no cut-off is given here.

Columns and labels:
[1] = test system: HepG2; assay: cells; conditions: Homo sapiens, HepG2, 24 h
Description: Cytotoxicity against human HepG2 cells after 24 hrs by MTT assay

[2] = biological target: T1, Bile acid receptor (Homo sapiens) (UniProt Q96RI1); assay: Antagonist activity at human FXR expressed in CV-1 cells assessed as inhibition of CDCA-induced receptor transactivation upto 100 uM after 24 hrs by luciferase reporter gene assay; type: cell-based
T1 sequence (whole entry): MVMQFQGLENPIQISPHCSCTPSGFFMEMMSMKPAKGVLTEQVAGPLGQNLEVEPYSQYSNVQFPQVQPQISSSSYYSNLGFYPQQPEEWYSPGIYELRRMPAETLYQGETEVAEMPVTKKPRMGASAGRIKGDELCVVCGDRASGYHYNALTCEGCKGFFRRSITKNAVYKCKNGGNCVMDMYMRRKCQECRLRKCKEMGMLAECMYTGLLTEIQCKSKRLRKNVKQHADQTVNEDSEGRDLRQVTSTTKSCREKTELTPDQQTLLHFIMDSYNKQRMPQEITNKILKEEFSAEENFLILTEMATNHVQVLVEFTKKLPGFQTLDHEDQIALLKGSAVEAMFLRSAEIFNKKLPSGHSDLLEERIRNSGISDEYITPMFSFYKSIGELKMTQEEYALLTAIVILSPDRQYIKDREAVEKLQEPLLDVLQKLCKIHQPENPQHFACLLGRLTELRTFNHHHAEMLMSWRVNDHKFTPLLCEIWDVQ

[3] = test system: MCF7; assay: Antiproliferative activity against human MCF7 cells after 20 hrs by microculture tetrazolium assay; type: functional; conditions: MCF7, 20 h, read-out: ED50 (the source's name)
[4] = biological target: T2, Bile acid receptor (Homo sapiens, UniProt Q96RI1); assay: Antagonist activity at human FXR expressed in CV-1 cells assessed as inhibition of CDCA-induced receptor transactivation after 24 hrs by luciferase reporter gene assay; type: cell-based
T2 sequence (Q96RI1 whole entry): T1 sequence (whole entry)

[5] = test system: Human immunodeficiency virus 1; assay: Antiviral activity against HIV1 RF assessed as inhibition of viral infection in human T-lymphoblastoid cells; type: functional, organism-based; conditions: Human immunodeficiency virus 1, RF
[6] = test system: Human immunodeficiency virus 1; assay: Antiviral activity against HIV1 3B infected in human PBMC cells assessed as reduction in reverse transcriptase activity after 5 days by XTT assay; type: functional, organism-based; conditions: Human immunodeficiency virus 1, 3B, 120 h
[7] = test system: Mus musculus; assay: Antiinflammatory activity in Swiss mouse assessed as inhibition of carrageenan-induced paw edema at 0.3 mg/kg, ip by hydroplethismometer; type: functional

CC(C)[C@@H](NC(=O)[C@H]1CCCN1C(=O)[C@H](Cc1ccc(Br)cc1)NC(=O)[C@@H](C)NC=O)C(=O)N[C@H](C(=O)N[C@H](C[C@@]1(O)C(=O)Nc2ccccc21)C(=O)N[C@@H](CCCNC(=N)N)C(=O)N[C@H](CS(=O)(=O)O)C(=O)N[C@H]1C(=O)N(C)[C@H](CCC(N)=O)C(=O)N[C@@H](Cc2ccccc2)C(=O)N[C@H]([C@H](C)O)C(=O)N[C@H](CC(N)=O)C(=O)N(C)CC(=O)O[C@@H]1C)C(C)(C)C
IC50 [1]: 100 µM
inhibition [2]: inactive

CN[C@H](C(=O)N[C@H](C(=O)N(C)[C@H](/C=C(\C)C(=O)O)C(C)C)C(C)(C)C)C(C)(C)c1cn(C)c2ccccc12 [HEMIASTERLIN]
EC50 [3]: 0.0005 µM

CC(C)[C@@H](NC(=O)[C@@H]1CCCN1C(=O)[C@H](Cc1ccc(Br)cc1)NC(=O)[C@@H](C)NC=O)C(=O)N[C@H](C(=O)N[C@H](Cc1c[nH]c2ccccc12)C(=O)N[C@@H](CCCNC(=N)N)C(=O)N[C@H](CS(=O)(=O)O)C(=O)N[C@@H]1C(=O)N(C)[C@@H](CCC(N)=O)C(=O)N[C@H](Cc2ccccc2)C(=O)N[C@@H]([C@@H](C)O)C(=O)N[C@@H](CC(N)=O)C(=O)N(C)CC(=O)O[C@@H]1C)C(C)(C)C
IC50 [4]: 5 µM
IC50 [1]: 100 µM

CCC(C)/C=C(C)/C=C\C(O)C(C)(O)C(=O)NCC(=O)N[C@@H](C(=O)N[C@H](C(=O)N[C@H](C(=O)N[C@H]1C(=O)N[C@H](COC)C(=O)NCC(=O)N[C@@H](C)CN(C)[C@H]([C@@H](C)O)CNC(C(OC)c2ccc(O)cc2)C(=O)N2CCCC[C@H]2C(=O)O[C@@H]1C(C)C)[C@@H](C)[C@@H](C)C(N)=O)[C@H](C)N)[C@@H](C)O (stereo not given in full)
EC50 [5]: 0.0026 µM

CC(C)[C@@H](NC(=O)[C@H]1CCCN1C(=O)[C@H](Cc1ccccc1)NC(=O)[C@@H](C)NC=O)C(=O)N[C@H](C(=O)N[C@H](Cc1c[nH]c2ccccc12)C(=O)N[C@@H](CCCNC(=N)N)C(=O)N[C@H](CS(=O)(=O)O)C(=O)N[C@H]1C(=O)N(C)[C@H](CCC(N)=O)C(=O)N[C@@H](Cc2ccccc2)C(=O)N[C@H]([C@H](C)O)C(=O)N[C@H](CC(N)=O)C(=O)N(C)CC(=O)O[C@@H]1C)C(C)(C)C
IC50 [4]: 6 µM
IC50 [1]: 100 µM

CC[C@@H](C)C[C@@H](C)[C@@H](O)[C@@H](C)C(=O)N[C@H](CCCN)C(=O)N[C@@H](CCC(=O)O)[C@@H](O)[C@@H](O)C(=O)N[C@H](C(=O)N[C@H]1C(=O)N[C@H](CO)C(=O)N[C@H](CCCN)C(=O)N[C@@H](CC(C)C)C(=O)N(C)[C@@H](CCC(N)=O)C(=O)N[C@@H]([C@@H](C)OC)C(=O)N[C@H](CC(=O)O)C(=O)N2CCCC[C@H]2C(=O)O[C@@H]1[C@H](C)C(C)C)[C@@H](C)[C@@H](C)C(N)=O
IC50 [6]: 0.075 µM

CCC[C@@H](CC[C@@H](C)[C@@H]1OC(=O)[C@H](C)NC(=O)[C@H]([C@@H](C)CCO)N(C)C(=O)[C@]2(C)CSC(=N2)[C@H](C)NC(=O)C1(C)C)OC
inhibition in vivo at 0.3 mg/kg [7]: 60%

CC(C)[C@H](NC(=O)[C@H](NC(=O)[C@@H]1CCCN1C(=O)[C@H](Cc1ccc(Br)cc1)NC(=O)[C@@H](C)NC=O)C(C)C)C(=O)N[C@H](Cc1c[nH]c2ccccc12)C(=O)N[C@@H](CCCNC(=N)N)C(=O)N[C@H](CS(=O)(=O)O)C(=O)N[C@@H]1C(=O)N(C)[C@@H](CCC(N)=O)C(=O)N[C@H](Cc2ccccc2)C(=O)N[C@@H]([C@@H](C)O)C(=O)N[C@@H](CC(N)=O)C(=O)N(C)CC(=O)O[C@@H]1C
IC50 [4]: 0.5 µM
IC50 [1]: 20 µM

COc1cccc2c1C(=O)c1c(O)c3c(c(O)c1C2=O)C[C@@](O)(C(=O)CO)C[C@@H]3O[C@H]1C[C@H](N)[C@H](O)[C@H](C)O1 [DOXORUBICIN]
IC50 [1]: 2.1 µM

CC(C)[C@@H](NC(=O)[C@H]1CCCN1C(=O)[C@H](Cc1ccc(Br)cc1)NC(=O)[C@@H](C)NC=O)C(=O)N[C@H](C(=O)N[C@H](C[C@]1(O)C(=O)Nc2ccccc21)C(=O)N[C@@H](CCCNC(=N)N)C(=O)N[C@H](CS(=O)(=O)O)C(=O)N[C@H]1C(=O)N(C)[C@H](CCC(N)=O)C(=O)N[C@@H](Cc2ccccc2)C(=O)N[C@H]([C@H](C)O)C(=O)N[C@H](CC(N)=O)C(=O)N(C)CC(=O)O[C@@H]1C)C(C)(C)C
IC50 [1]: 100 µM
inhibition [2]: inactive
